Test results from US20240368181A1, “QUINOXALINE DERIVATIVES AND USES THEREOF” (Black Diamond Therapeutics, Inc., priority 2021, published 2024).
pIC50: −log10 of the molar value.

What was measured:
Type in all cases: cell-based
[1] = test system: RT-112 (FGFR3-Tacc3 fusion) cells; experiment: cell proliferation assay (CellTiterGlo), RT-112 cells; details: Homo sapiens, RT-112, RT112 cells, 72 hours
From the text: (§1) In some embodiments, the biological assay assess the ability of the compounds to inhibit cell proliferation.
(§2) In some embodiments, cells (e.g., SNU-16 (FGFR2-amplification) cells) may be suspended and dispensed in plates. In some embodiments, cells (e.g., UM-UC-14 (FGFR3-S249C) cells) may be suspended and dispensed in plates. In some embodiments, cells (e.g., DMS-114 (FGFR1 overexpression) cells) may by suspended and dispensed in plates. In some embodiments, cells (e.g., RT-112 (FGFR3-Tacc3 fusion) cells) may be suspended and dispensed in plates. In some embodiments, to determine the effect of the compounds of the present disclosure on cell proliferation, cells (e.g., SNU-16, UM-UC-14, DMS-114 and […] cells) may be incubated in the presence of vehicle control (e.g., DMSO) or a compound of the present disclosure at varying concentrations and the inhibition of cell growth may be determined by luminescent quantification (e.g., of intracellular ATP content using CellTiterGlo), according to the manufacturers protocol. In some embodiments, to determine the IC50 values, the vehicle-treated cells were normalized as viable cells and the growth was analyzed using a software (e.g., the CDD Vault software (Collaborative Drug Discovery, Burlingame, CA)).

[2] = test system: DMS-114 (FGFR1 overexpression) cells; experiment: cell proliferation assay (CellTiterGlo), DMS-114 cells; details: Homo sapiens, DMS-114, 72 h
From the text: as §1, §2

[3] = test system: UM-UC-14 (FGFR3-S249C) cells; experiment: cell proliferation assay (CellTiterGlo), UM-UC-14 cells; details: UMUC14, 72 h
From the text: as §1, §2

[4] = test system: SNU-16 (FGFR2-amplification) cells; experiment: cell proliferation assay (CellTiterGlo), SNU-16 cells; details: Homo sapiens, 72 hours
From the text: as §1, §2

With `Cc1nc2ccc(Oc3ccc4ncc(-c5cnn([C@H]6C[C@@H](N7C[C@H]8C[C@@H]7CO8)C6)c5)nc4c3Cl)cc2[nH]1` [Compound 207] the pIC50 [1] was 7.00 to 7.70, the pIC50 [2] was 6.40 to 7.00 and the pIC50 [3] was 7.00 to 7.70. The pIC50 [4] was 7.00 to 7.70.
Work on `COC1(Cn2cc(-c3cnc4ccc(Oc5ccc6nc(C)[nH]c6c5)c(Cl)c4n3)cn2)CC1` [Compound 110] yielded a pIC50 [1] of 7.00 to 7.70, a pIC50 [2] of no more than 6.40 and a pIC50 [3] of 7.00 to 7.70. It also gave a pIC50 [4] of 7.00 to 7.70.
In the case of `Cc1nc2ccc(Oc3ccc4ncc(-c5cnn([C@H]6CCNC[C@@H]6F)c5)nc4c3C)cc2[nH]1` [Compound 288], the pIC50 [1] was 7.00 to 7.70, the pIC50 [2] was no more than 6.40 and the pIC50 [3] was 7.00 to 7.70. It also gave a pIC50 [4] of 7.00 to 7.70.
`CO[C@H]1CC[C@H](Cn2cc(-c3cnc4ccc(Oc5ccc6nc(C)[nH]c6c5)c(Cl)c4n3)cn2)CC1` [Compound 335] showed a pIC50 [1] of 7.00 to 7.70, a pIC50 [2] of no more than 6.40 and a pIC50 [3] of 7.00 to 7.70. It also gave a pIC50 [4] of 7.00 to 7.70.
With `Cc1nc2ccc(Oc3ccc4ncc(-c5cnn(CC6COCCN6C)c5)nc4c3Cl)cc2[nH]1` (stereo not drawn) [Compound 245] the pIC50 [1] was 7.00 to 7.70, the pIC50 [2] was no more than 6.40 and the pIC50 [3] was 7.00 to 7.70. The pIC50 [4] was 7.00 to 7.70.
Work on `Cc1nc2ccc(Oc3ccc4ncc(-c5cnn(C6CCN(C(=O)N7CCC7)CC6)c5)nc4c3Cl)cc2[nH]1` [Compound 232] yielded a pIC50 [1] of 7.00 to 7.70, a pIC50 [2] of no more than 6.40 and a pIC50 [3] of 7.00 to 7.70. It also gave a pIC50 [4] of 7.00 to 7.70.
`Cc1nc2ccc(Oc3ccc4ncc(-c5cnn([C@H](C)C6CC(F)(F)C6)c5)nc4c3Cl)c(F)c2[nH]1` [Compound 109] showed a pIC50 [1] greater than 7.70, a pIC50 [2] of 6.40 to 7.00 and a pIC50 [3] greater than 7.70. It also gave a pIC50 [4] greater than 7.70.
Work on `Cc1nc2ccc(Oc3ccc4ncc(-c5cnn(CC6(O)CC6)c5)nc4c3F)c(Cl)c2[nH]1` [Compound 137] yielded a pIC50 [1] of 6.40 to 7.00 and a pIC50 [4] of 6.40 to 7.00.
Compound `Cc1nc2ccc(Oc3ccc4ncc(-c5cnn(CC6CC(F)(F)C6)c5)nc4c3Cl)c(Cl)c2[nH]1` [Compound 136] has a pIC50 [1] of 6.40 to 7.00 and a pIC50 [4] of 6.40 to 7.00.
`Cc1nc2ccc(Oc3ccc4ncc(-c5cnn(CC6CC(F)(F)C6)c5)nc4c3C3CCOC3)cc2[nH]1` (stereo not drawn) [Compound 134] gave a pIC50 [1] of 7.00 to 7.70 and a pIC50 [4] of 7.00 to 7.70.
For `Cc1nc2ccc(Oc3ccc4ncc(-c5cnn(CC6CC(F)(F)C6)c5)nc4c3-n3c(C)ccc3C)cc2[nH]1` [Compound 133], the pIC50 [1] was 6.40 to 7.00 and the pIC50 [4] was no more than 6.40.
Work on `Cc1nc2ccc(Oc3ccc4ncc(-c5cnn(C6CCN(C)C7(CC7)C6)c5)nc4c3Cl)c(F)c2[nH]1` (stereo not drawn) [Compound 135] yielded a pIC50 [1] greater than 7.70 and a pIC50 [4] greater than 7.70.
`Cc1nc2ccc(Oc3ccc4ncc(-c5cnn([C@H]6C[C@H](C(F)(F)F)C6)c5)nc4c3Cl)cc2[nH]1` [Compound 178] was tested, and the pIC50 [2] was no more than 6.40, the pIC50 [3] was no more than 6.40 and the pIC50 [4] was 7.00 to 7.70.
In the case of `Cc1nc2ccc(Oc3ccc4ncc(-c5cnn(CC6CC(F)(F)C6)c5)nc4c3-n3ccnc3)c(F)c2[nH]1` [Compound 96], the pIC50 [1] was 7.00 to 7.70, the pIC50 [2] was 6.40 to 7.00 and the pIC50 [4] was 7.00 to 7.70.
In the case of `Cc1nc2ccc(Oc3ccc4ncc(-c5cnn(CC(=O)N6CCC(F)(F)C6)c5)nc4c3Cl)c(F)c2[nH]1` [Compound 174], the pIC50 [2] was 6.40 to 7.00, the pIC50 [3] was greater than 7.70 and the pIC50 [4] was greater than 7.70.
Compound `Cc1nc2ccc(Oc3ccc4ncc(-c5cnn(C(C)C6CC(F)(F)C6)c5)nc4c3Cl)cc2[nH]1` (stereo not drawn) [Compound 182] has a pIC50 [2] of no more than 6.40, a pIC50 [3] of 7.00 to 7.70 and a pIC50 [4] of 7.00 to 7.70.
Work on `Cc1nc2ccc(Oc3ccc4ncc(-c5cnn(C[C@@H](C)O)c5)nc4c3Cl)cc2[nH]1` [Compound 132] yielded a pIC50 [1] of 7.00 to 7.70 and a pIC50 [4] of 7.00 to 7.70.
Work on `Cc1nc2ccc(Oc3ccc4ncc(-c5cnn([C@H]6C[C@](C)(O)C6)c5)nc4c3Cl)cc2[nH]1` [Compound 175] yielded a pIC50 [2] of 6.40 to 7.00, a pIC50 [3] of 7.00 to 7.70 and a pIC50 [4] greater than 7.70.
`Cc1nc2ccc(Oc3ccc4ncc(-c5cnn(C6CCC(F)(F)CC6)c5)nc4c3Cl)nc2[nH]1` [Compound 177] showed a pIC50 [2] of no more than 6.40, a pIC50 [3] of no more than 6.40 and a pIC50 [4] of no more than 6.40.
Work on `Cc1nc2ccc(Oc3ccc4ncc(-c5cnn(CC6(O)COC6)c5)nc4c3Cl)c(F)c2[nH]1` [Compound 138] yielded a pIC50 [1] of no more than 6.40 and a pIC50 [4] of no more than 6.40.
